Reference: patent publication US10519211B2, “Compounds as peptidic GLP1/glucagon/GIP receptor agonists” (SANOFI, priority 2016, dated 2019)
pEC50: −log10 of the molar value. Numbered stars: 1 amine (or outer) side, 2 acyl side, 3 side chain; on linkers, the order of the positions; unused ones are H or OH. Square brackets hold non-standard residues; d marks the D form. Side chains are listed from the residue outwards. Peptide text beside a SMILES is read from it. * marks the point of attachment. γGlu = O=C(O)[C@H](CCC(=O)[*:2])N[*:1]; Stearoyl = CCCCCCCCCCCCCCCCCC(=O)*; Palmitoyl = CCCCCCCCCCCCCCCC(=O)*; AEEA = NCCOCCOCC(=O)O; Aib = CC(C)(N)C(=O)O

Experiments:
[1] = biological target: T1, human GLP-1 receptor (hGLP-1 R) (Homo sapiens, UniProt P43220); assay: cAMP response (HTRF) of HEK-293 cells stably expressing human GLP-1 receptor; type: cell-based; conditions: Table 8; cAMP formation
T1 construct: expressed in transfected cells; host or cells: HEK-293
Method: (§1) cAMP content of cells was determined using a kit from Cisbio Corp. (cat. no. 62AM4PEJ) based on HTRF (Homogenous Time Resolved Fluorescence). For preparation, cells were split into T175 culture flasks and grown overnight to near confluency in medium (DMEM/10% FBS). Medium was then removed and cells washed with PBS lacking calcium and magnesium, followed by proteinase treatment with accutase (Sigma-Aldrich cat. no. A6964). Detached cells were washed and resuspended in assay buffer (1×HBSS; 20 mM HEPES, 0.1% BSA, 2 mM IBMX) and cellular density determined. They were then diluted to 400000 cells/ml and 25 μl-aliquots dispensed into the wells of 96-well plates. For measurement, 25 μl of test compound in assay buffer was added to the wells, followed by incubation for 30 minutes at room temperature.
(§2) Potencies of peptidic compounds at the GLP-1, glucagon and GIP receptors were determined by exposing cells expressing human glucagon receptor (hGlucagon R), human GIP receptor (hGIP-R) or human GLP-1 receptor (hGLP-1 R) to the listed compounds at increasing concentrations and measuring the formed cAMP as described in Methods.

[2] = Chemical stability assessment (UPLC-UV, relative purity loss); type: physicochemical; conditions: 1 mg/ml, 25 mM acetate buffer pH 4.5 with m-cresol (buffer system A)
Summary of the method: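 Peptide at 1 mg/mL (purity-corrected) in 25 mM acetate pH 4.5 with methionine, m-cresol and glycerol, sterile-filtered, stored 28 days at 40° C. Purity measured by UPLC-UV as peptide peak area fraction at start and after storage; value is relative percent purity loss.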

[3] = Solubility assessment (UPLC-UV); type: physicochemical; conditions: acetate buffer pH 4.5, 2.7 mg/ml m-cresol (buffer system A), target 10 mg/ml
Summary of the method: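 Peptides at 10 mg/mL (purity-corrected, by UPLC/MS) in 100 mM acetate buffer pH 4.5 with 2.7 mg/ml m-Cresol, gently agitated 1 hour, then centrifuged 15 min at 2500 RCF. Supernatant, diluted 1:10, quantified by UPLC-UV peak area against a reference peptide standard curve, extinction-coefficient corrected.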

[4] = Dynamic light scattering (DLS), hydrodynamic radius as surrogate for interaction parameter kD; type: physicochemical; conditions: for Delta Rh [nm] = Rh5 − Rh1: DLS buffer system A pH 4.5; for Rh1 [nm] c= 1 mg/ml / Rh5 [nm] c = 5 mg/ml: hydrodynamic radius, DLS buffer system A pH 4.5, DLS method C, 25° C.
Method: For every peptide solution, the hydrodynamic radius Rh and the diffusion constant D (related via the Stokes-Einstein equation) were determined as an average over triplicates. Both parameters were determined at different concentrations (e.g., Rh1 and D1: 1 mg/ml and Rh5 and D5: 5 mg/ml) in the same buffer system. The difference of these parameters between low and high peptide concentration is a surrogate for the DLS interaction parameter kD. Rh5<Rh1 or D5>D1 correspond to kD>0 and therefore to repulsive inter-particle interactions that result in improved physical (or colloidal) stability.
DLS buffer system A) 25 mM acetate buffer pH4.5, 3 mg/mL L-Methionine, 2.7 mg/mL m-cresol, 18 mg/mL Glycerol 85%
DLS Method C: DLS measurements were performed on a DynaPro Plate Reader II (Wyatt Technology, Santa Barbara, Calif., US) and using one of the following black, low volume, and non-treated plates: polystyrene 384 assay plate with clear bottom (Corning, N.Y., US), polystyrene 96 assay plate with clear bottom (Corning, N.Y., US), cyclo olefin polymer (COP) 384 assay plate with clear bottom (Aurora, Mont., US), or polystyrene 384 assay plate with clear bottom (Greiner Bio-One, Germany). The data were processed with the Dynamics software provided by Wyatt Technology. Parameters of the particle size distribution were determined with non-negatively constrained least squares (NNLS) methods using DynaLS algorithms. Measurements were taken at 25° C. with an 830 nm laser light source at an angle of 158°.
The hydrodynamic radius radius Rh of peptide samples was determined at different peptide concentrations (1 mg/ml and 5 mg/ml) in DLS buffer system A using DLS method C as described in Methods as surrogate for the DLS interaction parameter kD.

[5] = biological target: T2, human glucagon receptor (hGlucagon R) (Homo sapiens, UniProt P47871); assay: cAMP response (HTRF) of HEK-293 cells stably expressing human glucagon receptor; type: cell-based; conditions: Table 8; cAMP formation
T2 construct: expressed in transfected cells; host or cells: HEK-293
Method: as §1, §2

[6] = Thioflavin T (ThT) assay for physical stability (fibrillation); type: physicochemical; conditions: 3 mg/ml, 100 mM acetate pH 4.5 with m-cresol, shaking at 37° C.
Summary of the method: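 Peptide at 3 mg/ml with 100 μM ThT in 100 mM acetate pH 4.5 with m-cresol, stressed at 37° C by cycles of 10 s shaking at 960 rpm and 50 s rest. Fluorescence read every 20 minutes, eight replicates; lag time in hours.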

T1 sequence (P43220 24-463): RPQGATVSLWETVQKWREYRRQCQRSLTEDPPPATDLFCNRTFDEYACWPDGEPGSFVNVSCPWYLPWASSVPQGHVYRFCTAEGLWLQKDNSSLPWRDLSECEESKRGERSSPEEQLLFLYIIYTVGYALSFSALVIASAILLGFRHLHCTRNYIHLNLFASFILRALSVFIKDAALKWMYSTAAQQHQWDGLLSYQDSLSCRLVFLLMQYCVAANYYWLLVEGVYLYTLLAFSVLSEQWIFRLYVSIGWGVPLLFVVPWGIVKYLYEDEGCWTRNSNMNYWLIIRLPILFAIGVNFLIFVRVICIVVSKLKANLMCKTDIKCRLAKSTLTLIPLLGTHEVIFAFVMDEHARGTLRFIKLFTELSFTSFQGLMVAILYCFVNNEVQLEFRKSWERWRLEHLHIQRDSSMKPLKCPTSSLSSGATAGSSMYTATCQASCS
T2 sequence (P47871 26-477): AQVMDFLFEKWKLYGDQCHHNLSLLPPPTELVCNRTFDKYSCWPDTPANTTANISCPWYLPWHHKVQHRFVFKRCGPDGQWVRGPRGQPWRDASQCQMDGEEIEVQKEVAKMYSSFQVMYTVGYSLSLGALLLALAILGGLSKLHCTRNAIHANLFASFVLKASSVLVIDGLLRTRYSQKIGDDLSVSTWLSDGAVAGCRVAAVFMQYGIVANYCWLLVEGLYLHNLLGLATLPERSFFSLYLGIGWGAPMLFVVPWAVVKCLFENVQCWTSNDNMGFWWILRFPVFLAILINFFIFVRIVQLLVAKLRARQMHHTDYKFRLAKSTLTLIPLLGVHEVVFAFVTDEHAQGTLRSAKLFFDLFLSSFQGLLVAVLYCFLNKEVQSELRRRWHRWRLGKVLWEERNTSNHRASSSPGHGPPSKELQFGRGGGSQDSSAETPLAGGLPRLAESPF

| pEC50 [1] | Chemical stability [relative purity loss 28 days 40° C.] (%) at pH 4.5 [2] | solubility at 1 h [3] | Delta Rh [nm] = Rh5 − Rh1 [4] | Rh1 [nm] c= 1 mg/ml [4] | Rh5 [nm] c = 5 mg/ml [4] | pEC50 [5] | Lag time before increase [6] | SMILES |
| --- | --- | --- | --- | --- | --- | --- | --- | --- |
| 11.24 | 5.6% | > 8900 µg/mL | −0.2 nm | 2.7 nm | 2.6 nm |  |  | CCCCCCCCCCCCCCCCCC(=O)N[C@@H](CCC(=O)NCCCC[C@H](NC(=O)[C@H](CC(C)C)NC(=O)[C@H](CCCCN)NC(=O)[C@H](CO)NC(=O)[C@H](CC(C)C)NC(=O)[C@H](CC(=O)O)NC(=O)[C@H](CO)NC(=O)[C@@H](NC(=O)[C@H](Cc1ccccc1)NC(=O)[C@@H](NC(=O)CNC(=O)[C@H](CCC(N)=O)NC(=O)C(C)(C)NC(=O)[C@@H](N)Cc1c[nH]cn1)[C@@H](C)O)[C@@H](C)O)C(=O)N[C@@H](CCC(=O)O)C(=O)N[C@@H](CCCCN)C(=O)N[C@@H](CCC(N)=O)C(=O)N[C@@H](CCCNC(=N)N)C(=O)N[C@@H](CCC(N)=O)C(=O)NC(C)(C)C(=O)N[C@@H](CCC(=O)O)C(=O)N[C@@H](Cc1ccccc1)C(=O)N[C@H](C(=O)N[C@@H](CCC(=O)O)C(=O)N[C@@H](Cc1c[nH]c2ccccc12)C(=O)N[C@@H](CC(C)C)C(=O)N[C@@H](CCCCN)C(=O)N[C@@H](C)C(=O)NCC(=O)NCC(=O)N1CCC[C@H]1C(=O)N1CCC[C@H]1C(=O)N[C@@H](CO)C(=O)NC(C)(C)C(=O)N[C@@H](CCCCN)C(=O)N1CCC[C@H]1C(=O)N1CCC[C@H]1C(=O)N1CCC[C@H]1C(=O)N[C@@H](CCCCN)C(N)=O)[C@@H](C)CC)C(=O)O [SEQ ID NO: 15, H-Aib-Q-G-T-F-T-S-D-L-S-K-L-K[gGlu-Stea]-E-K-Q-R-Q-Aib-E-F-I-E-W-L-K-A-G-G-P-P-S-Aib-K-P-P-P-K-NH2] (H-H[Aib]QGTFTSDLSKLK([γGlu-Stearoyl])EKQRQ[Aib]EFIEWLKAGGPPS[Aib]KPPPK-NH2) |
|  | 5.4% | > 9300 µg/mL |  |  |  | 10.66 | >45 h | CCCCCCCCCCCCCCCC(=O)N[C@@H](CCC(=O)N[C@@H](CCC(=O)NCCCC[C@H](NC(=O)[C@H](CC(C)C)NC(=O)[C@H](CCCCN)NC(=O)[C@H](CO)NC(=O)[C@H](CC(C)C)NC(=O)[C@H](CC(=O)O)NC(=O)[C@H](CO)NC(=O)[C@@H](NC(=O)[C@H](Cc1ccccc1)NC(=O)[C@@H](NC(=O)CNC(=O)[C@H](CCC(N)=O)NC(=O)C(C)(C)NC(=O)[C@@H](N)Cc1c[nH]cn1)[C@@H](C)O)[C@@H](C)O)C(=O)N[C@@H](CCC(=O)O)C(=O)N[C@@H](CCCCN)C(=O)N[C@@H](CCC(N)=O)C(=O)N[C@@H](CCCNC(=N)N)C(=O)N[C@@H](CCC(N)=O)C(=O)NC(C)(C)C(=O)N[C@@H](CCC(=O)O)C(=O)N[C@@H](Cc1ccccc1)C(=O)N[C@H](C(=O)N[C@@H](CCC(=O)O)C(=O)N[C@@H](Cc1c[nH]c2ccccc12)C(=O)N[C@@H](CC(C)C)C(=O)N[C@@H](CCCCN)C(=O)N[C@@H](C)C(=O)NCC(=O)NCC(=O)N[C@@H](Cc1c[nH]cn1)C(=O)N1CCC[C@H]1C(=O)N[C@@H](CO)C(=O)NC(C)(C)C(=O)N[C@@H](CCCCN)C(=O)N1CCC[C@H]1C(=O)N1CCC[C@H]1C(=O)N1CCC[C@H]1C(=O)N[C@@H](CCCCN)C(N)=O)[C@@H](C)CC)C(=O)O)C(=O)O [SEQ ID NO: 12, H-Aib-Q-G-T-F-T-S-D-L-S-K-L-K[gGlu-gGlu-Palm]-E-K-Q-R-Q-Aib-E-F-I-E-W-L-K-A-G-G-H-P-S-Aib-K-P-P-P-K-NH2] |
|  | 6.4% | > 9200 µg/mL | −0.5 nm | 2.9 nm | 2.4 nm | 10.66 | >45 h | CCCCCCCCCCCCCCCC(=O)NCCOCCOCC(=O)N[C@@H](CCC(=O)N[C@@H](CCC(=O)NCCCC[C@H](NC(=O)[C@H](CC(C)C)NC(=O)[C@H](CCCCN)NC(=O)[C@H](CO)NC(=O)[C@H](CC(C)C)NC(=O)[C@H](CC(=O)O)NC(=O)[C@H](CO)NC(=O)[C@@H](NC(=O)[C@H](Cc1ccccc1)NC(=O)[C@@H](NC(=O)CNC(=O)[C@H](CCC(N)=O)NC(=O)C(C)(C)NC(=O)[C@@H](N)Cc1c[nH]cn1)[C@@H](C)O)[C@@H](C)O)C(=O)N[C@@H](CCC(=O)O)C(=O)N[C@@H](CCCCN)C(=O)N[C@@H](CCC(N)=O)C(=O)N[C@@H](CCCNC(=N)N)C(=O)N[C@@H](CCC(N)=O)C(=O)NC(C)(C)C(=O)N[C@@H](CCC(=O)O)C(=O)N[C@@H](Cc1ccccc1)C(=O)N[C@H](C(=O)N[C@@H](CCC(=O)O)C(=O)N[C@@H](Cc1c[nH]c2ccccc12)C(=O)N[C@@H](CC(C)C)C(=O)N[C@@H](CCCCN)C(=O)N[C@@H](C)C(=O)N[C@H](C)C(=O)NCC(=O)N[C@@H](Cc1c[nH]cn1)C(=O)N1CCC[C@H]1C(=O)N[C@@H](CO)C(=O)NC(C)(C)C(=O)N[C@@H](CCCCN)C(=O)N1CCC[C@H]1C(=O)N1CCC[C@H]1C(=O)N1CCC[C@H]1C(=O)N[C@@H](CCCCN)C(N)=O)[C@@H](C)CC)C(=O)O)C(=O)O [SEQ ID NO: 17, H-Aib-Q-G-T-F-T-S-D-L-S-K-L-K[gGlu-gGlu-AEEA-Palm]-E-K-Q-R-Q-Aib-E-F-I-E-W-L-K-A-dAla-G-H-P-S-Aib-K-P-P-P-K-NH2] (H-H[Aib]QGTFTSDLSKLK([γGlu-γGlu-AEEA-Palmitoyl])EKQRQ[Aib]EFIEWLKA[dA]GHPS[Aib]KPPPK-NH2) |
| 11.24 | 5.5% | > 9300 µg/mL | −0.2 nm | 2.7 nm | 2.4 nm |  |  | CCCCCCCCCCCCCCCC(=O)N[C@@H](CCC(=O)NCCCC[C@H](NC(=O)[C@H](CC(C)C)NC(=O)[C@H](CCCCN)NC(=O)[C@H](CO)NC(=O)[C@H](CC(C)C)NC(=O)[C@H](CC(=O)O)NC(=O)[C@H](CO)NC(=O)[C@@H](NC(=O)[C@H](Cc1ccccc1)NC(=O)[C@@H](NC(=O)CNC(=O)[C@H](CCC(N)=O)NC(=O)C(C)(C)NC(=O)[C@@H](N)Cc1c[nH]cn1)[C@@H](C)O)[C@@H](C)O)C(=O)N[C@@H](CCC(=O)O)C(=O)N[C@@H](CCCCN)C(=O)N[C@@H](CCC(N)=O)C(=O)N[C@@H](CCCNC(=N)N)C(=O)N[C@@H](CCC(N)=O)C(=O)NC(C)(C)C(=O)N[C@@H](CCC(=O)O)C(=O)N[C@@H](Cc1ccccc1)C(=O)N[C@H](C(=O)N[C@@H](CCC(=O)O)C(=O)N[C@@H](Cc1c[nH]c2ccccc12)C(=O)N[C@@H](CC(C)C)C(=O)N[C@@H](CCCCN)C(=O)N[C@@H](C)C(=O)NCC(=O)NCC(=O)N1CCC[C@H]1C(=O)N1CCC[C@H]1C(=O)N[C@@H](CO)C(=O)NC(C)(C)C(=O)N[C@@H](CCCCN)C(=O)N1CCC[C@H]1C(=O)N1CCC[C@H]1C(=O)N1CCC[C@H]1C(=O)N[C@@H](CCCCN)C(N)=O)[C@@H](C)CC)C(=O)O [SEQ ID NO: 14, H-Aib-Q-G-T-F-T-S-D-L-S-K-L-K[gGlu-Palm]-E-K-Q-R-Q-Aib-E-F-I-E-W-L-K-A-G-G-P-P-S-Aib-K-P-P-P-K-NH2] |
